{"source": "patent US20100240657A1", "about": "“CHEMICAL COMPOUNDS” (BOEHRINGER INGELHEIM INTERNATIONAL GMBH, priority 2007, published 2010)", "key": {"[1]": {"molecular_target": "B-Raf (V600E) (Homo sapiens, UniProt P15056, V600E)", "sequence (P15056 whole entry V600E)": "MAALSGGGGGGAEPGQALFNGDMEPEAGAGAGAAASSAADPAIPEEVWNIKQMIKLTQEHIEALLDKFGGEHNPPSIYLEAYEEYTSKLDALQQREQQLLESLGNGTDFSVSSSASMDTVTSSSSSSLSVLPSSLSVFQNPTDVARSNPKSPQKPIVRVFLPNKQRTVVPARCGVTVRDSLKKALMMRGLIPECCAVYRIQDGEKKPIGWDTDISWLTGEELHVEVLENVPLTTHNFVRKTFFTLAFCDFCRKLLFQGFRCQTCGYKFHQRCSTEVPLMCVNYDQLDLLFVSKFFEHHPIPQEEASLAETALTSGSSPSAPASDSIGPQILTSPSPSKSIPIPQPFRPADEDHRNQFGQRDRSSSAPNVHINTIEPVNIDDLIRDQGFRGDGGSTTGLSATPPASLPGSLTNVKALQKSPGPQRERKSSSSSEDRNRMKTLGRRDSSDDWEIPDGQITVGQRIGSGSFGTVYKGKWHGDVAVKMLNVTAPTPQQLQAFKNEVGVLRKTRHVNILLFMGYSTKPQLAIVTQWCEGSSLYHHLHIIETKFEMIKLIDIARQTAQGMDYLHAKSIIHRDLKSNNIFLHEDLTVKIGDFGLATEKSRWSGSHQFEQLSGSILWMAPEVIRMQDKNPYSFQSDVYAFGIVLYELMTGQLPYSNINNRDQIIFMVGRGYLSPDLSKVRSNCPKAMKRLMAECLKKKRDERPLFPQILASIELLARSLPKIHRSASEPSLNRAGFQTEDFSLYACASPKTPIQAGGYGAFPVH", "assay": "Kinase test B-Raf (V600E)", "format": "biochemical", "conditions": "250 μM ATP, MEK1 substrate; read-out: IC50 value, B-Raf (V600E) inhibition test", "experimental": "In a dilution series, 10 μL aliquots of test substance solution are placed in a multiwell plate. The dilution series is selected so as to cover a range of concentrations from 2 μM to 0.128 or 0.017 nM. If necessary the initial concentration is changed from 2 μM to 10 or 0.4 μM and further dilution is carried out accordingly. The final concentration of DMSO is 5%. 10 μL of the B-Raf (V600E) kinase solution are pipetted in (containing 2.5 ng B-Raf (V600E)-kinase in 20 mM TrisHCl pH 7.5, 0.1 mM EDTA, 0.1 mM EGTA, 0.286 mM sodium orthovanadate, 10% glycerol, 1 mg/mL bovine serum albumin, 1 mM dithiothreitol) and incubated for 1 h at RT with agitation. The kinase reaction is started by the addition of 20 μL ATP solution [final concentration: 250 μM ATP, 30 mM Tris-HCl pH 7.5, 0.02% Brij, 0.2 mM sodium-orthovanadate, 10 mM magnesium acetate, phosphatase cocktail (Sigma, #P2850, dilution recommended by the manufacturer), 0.1 mM EGTA] and 10 μL MEK1 solution [containing 50 ng biotinylated MEK1 (prepared from purified MEK1 according to standard procedure, e.g. with reagent EZ-Link Sulfo-NHS-LC-Biotin, Pierce, #21335) in 50 mM Hepes pH 7.5, 150 mM NaCl, 10% glycerol, 0.02% Brij-35, 0.2 mM PMSF, 0.2 mM benzamidine] and carried out for 60 min at RT with constant agitation. The reaction is stopped by the addition of 12 μL of a 100 mM EDTA solution and incubated for a further 5 min. 55 μL of the reaction solution are transferred into a streptavidine-coated plate (e.g. Streptawell HighBond, Roche, #11989685001) and shaken gently for 1 h at RT, in order to bind biotinylated MEK1 to the plate. After removal of the liquid the plate is washed five times with 200 μL of 1×PBS, and 100 μL solution of primary antibody plus europium-labelled secondary antibody [Anti Phospho-MEK (Ser217/221), Cell Signaling #9121 and Eu-N1 labeled goat-anti-rabbit antibody, Perkin Elmer #AD01015], the primary antibody is diluted 1:2000 and the secondary antibody is added to 0.4-0.5 μg/mL diluted in Delfia Assay Buffer (Perkin Elmer, #1244-111). After 1 h agitation at RT the solution is poured away and washed five times with 200 μL Delfia Wash Buffer (Perkin Elmer #4010-00101244-114). After the addition of 200 μL Enhancement Solution (Perkin Elmer #4001-00101244-105) the preparation is shaken for 10 min at RT and then measured in a Wallac Victor using the programme “Delfia Time Resolved Fluorescence (Europium)”.\nIC50 values are determined from these dosage-activity curves using the software programme (GraphPadPrizm)."}, "[2]": {"test_system": "A375 cells", "assay": "Inhibition of proliferation on cultivated human melanoma cells (A375), AlamarBlue", "format": "cell-based", "conditions": "A-375, A375, method as for SK-MEL28, read-out: EC50 value, cellular A375 assay", "experimental": "(§1) To measure proliferation on cultivated human tumour cells, cells of melanoma cell line SK-MEL28 [American Type Culture Collection (ATCC)] are cultivated in MEM medium, supplemented with 10% foetal calf serum, 2% sodium bicarbonate, 1 mM sodium pyruvate, 1% non-essential amino acids (e.g. from Cambrex, #BE13-114E) and 2 mM glutamine. SK-MEL28 cells are placed in 96-well flat-bottomed plates at a density of 2500 cells per well in supplemented MEM medium (see above) and incubated overnight in an incubator (at 37° C. and 5% CO2). The active substances are added to the cells in various concentrations so as to cover a range of concentrations from 50 μM to 3.2 nM. If necessary the initial concentration is changed from 50 μM to 10 μM or 2 μM and further dilution (to 0.6 nM or 0.12 nM) is carried out accordingly. After a further 72 hours incubation, 20 μl AlamarBlue reagent (Serotec Ltd., #BUF012B) is added to each well, and the cells are incubated for a further 3-6 hours. The colour change of the AlamarBlue reagent is determined in a fluorescence spectrophotometer (e.g. Gemini, Molecular Devices). EC50 values are calculated using the software programme (GraphPadPrizm).\nTo measure proliferation on cultivated human tumour cells, cells of melanoma cell line A375 [American Type Culture Collection (ATCC)] are cultivated in MEM medium, supplemented with 10% foetal calf serum and 2% sodium bicarbonate. Test substances are tested on A375 cells according to the method described for SK-MEL28 cells (see above)."}, "[3]": {"test_system": "SK-MEL28 cells", "assay": "Inhibition of proliferation on cultivated human melanoma cells (SK-MEL28), AlamarBlue", "format": "cell-based", "conditions": "SK-MEL-28, SK-MEL28, 72 hours incubation, read-out: EC50 value, cellular SK-MEL28 assay", "experimental": "as §1"}}, "data": [{"smiles": "Cc1ccc(C(=O)Nc2ccc(Cl)c(C(F)(F)F)c2)cc1-c1csc(-c2cccnc2)n1", "note": "[Example 5b-b]", "values": [{"measurement": "IC50", "setting": "[1]", "result": "< 0.5", "unit": "µM"}]}, {"smiles": "COc1c(NC(=O)c2ccc(C)c(-c3noc(-c4cccnc4)n3)c2)cc(C(C)(C)C)cc1NS(C)(=O)=O", "note": "[Example 2a]", "values": [{"measurement": "IC50", "setting": "[1]", "result": "< 0.5", "unit": "µM"}, {"measurement": "EC50", "setting": "[2]", "result": "< 5", "unit": "µM"}]}, {"smiles": "Cc1ccc(C(=O)Nc2cc(C(C)(C)C)n[nH]2)cc1-c1csc(-c2cccnc2)n1", "note": "[Example 5b-a]", "values": [{"measurement": "IC50", "setting": "[1]", "result": "< 0.5", "unit": "µM"}, {"measurement": "EC50", "setting": "[3]", "result": "< 5", "unit": "µM"}, {"measurement": "EC50", "setting": "[2]", "result": "< 5", "unit": "µM"}]}, {"smiles": "COC(=O)c1cncc(-n2cc(-c3cc(C(=O)Nc4cc(C(C)(C)C)cc(NS(C)(=O)=O)c4OC)ccc3C)nn2)c1", "note": "[Example 1a]", "values": [{"measurement": "EC50", "setting": "[3]", "result": "< 5", "unit": "µM"}, {"measurement": "EC50", "setting": "[2]", "result": "< 5", "unit": "µM"}]}, {"smiles": "Cc1ccc(C(=O)Nc2ccc(Cl)c(C(F)(F)F)c2)cc1-c1noc(-c2cccnc2)n1", "note": "[Example 2b]", "values": [{"measurement": "IC50", "setting": "[1]", "result": "< 0.5", "unit": "µM"}, {"measurement": "EC50", "setting": "[2]", "result": "< 5", "unit": "µM"}]}, {"smiles": "COc1c(NC(=O)c2ccc(C)c(-c3nc(-c4cccnc4)no3)c2)cc(C(C)(C)C)cc1NS(C)(=O)=O", "note": "[Example 3a]", "values": [{"measurement": "IC50", "setting": "[1]", "result": "< 0.5", "unit": "µM"}, {"measurement": "EC50", "setting": "[3]", "result": "< 5", "unit": "µM"}, {"measurement": "EC50", "setting": "[2]", "result": "< 5", "unit": "µM"}]}, {"smiles": "Cc1ccc(C(=O)Nc2cc(C(C)(C)C)on2)cc1-c1c[nH]c(-c2cccnc2)n1", "note": "[Example 6c]", "values": [{"measurement": "EC50", "setting": "[3]", "result": "< 5", "unit": "µM"}, {"measurement": "EC50", "setting": "[2]", "result": "< 5", "unit": "µM"}]}]}
